The values that follow come from patent US11091428B2 (HAPLOGEN GMBH, priority 2016, dated 2021).

Like-named read-outs stand apart in the source and are kept apart here. Some results are limits rather than exact numbers.

In assay [1] the target is T1, PLA2G16 (Homo sapiens, UniProt P53816).
T1 construct: Hexa-His (N); made in house; host or cells: E. coli BL21(DE3)
T1 sequence (P53816 1-162): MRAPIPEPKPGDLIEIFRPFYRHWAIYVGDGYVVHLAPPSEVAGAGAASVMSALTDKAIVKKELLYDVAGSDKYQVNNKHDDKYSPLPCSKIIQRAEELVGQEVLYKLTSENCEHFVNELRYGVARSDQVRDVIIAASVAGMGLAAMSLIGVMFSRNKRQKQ
Briefly: Enzyme activity assay for PLA2G16 (Red/Green BODIPY PC-A2 fluorescence). The format is biochemical. As to conditions: His-tagged PLA2G16, 4 min pre-incubation, 2 nM to 50 μM; read-out: IC50 values of the compounds determined in the enzyme activity assay for PLA2G16. The text has this:
A cDNA for PLA2G16(NM_007069) was custom-synthesized by Genscript (Piscataway, USA) and inserted into a pET-based bacterial expression vector [Moffatt, B. A. and Studier, F. W. (1986) J. Mol. Biol. 189, 113-130; Rosenberg, A. H., Lade, B. N., Chui, D., Lin, S., Dunn, J. J., and Studier, F. W. (1987) Gene 56, 125-135], enabling the expression of N-terminally Hexa-His-tagged PLA2G16. E. coli BL21(DE3) (Agilent) were transformed with pET-His-PLA2G16according to the manufacturer's instructions and plated on Carbenicillin-containing agar plates (final concentration: 100 μg/mL). A single clone was in occulated in 100 mL LB medium supplemented with 100 μg/mL Carbenicillin and the in occulated culture was grown at 37° C. overnight in a rotary shaker. On the next day, the bacterial culture was diluted in LB medium supplemented with 100 μg/mL Carbenicillin (30 mL overnight culture in 800 mL total culture volume). Bacteria were grown at 37° C. until the OD600 reached 0.6. Gene expression was induced by addition of 1 mM isopropyl-β-D-thiogalactopyranosid (IPTG) for 2 h at 18° C. Subsequently, bacteria were harvested by centrifugation (15 min; 10,000×g; 4° C.) and frozen at −80° C. The bacterial pellet was resuspended in Buffer A (50 mM Tris/HCl pH 7.5, 500 mM NaCl, 5% glycerol, 5 mM β-Mercaptoethanol and 1 mM PMSF) and lysed by addition of 1 mg/mL lysozyme (Sigma Aldrich) and 100 μg/mL DNasel-(Roche). The sample was incubated at 30° C. for 30 min to allow lysis to occur. Then, the lysate was cleared by centrifugation (15,000×g, 15 min, 4° C.) and incubated with 1.5 mL Ni-NTA agarose suspension (Qiagen) for 60 min at 4° C. The Ni-NTA agarose was washed with 10 mL Buffer A. Bound protein was eluted by applying a manual gradient of Buffer A supplemented with increasing concentrations of imidazole (Sigma Aldrich; 25/50/75/100/250 mM). Purified fractions were analyzed by SDS-PAGE followed by Coomassie staining to assess the purity.
Activity of the protein was assessed as follows: Red/Green BODIPY® PC-A2 (Invitrogen, 1 mM in DMSO) was mixed with equal volumes of 1,2-Dioleoyl-sn-glycero-3-phosphocholine (DOPC; Sigma Aldrich, 10 mM in Ethanol) and 1,2-Dioleoyl-sn-glycero-3-phospho-rac-(1-glycerol) (DOPG; Sigma Aldrich, 10 mM in Ethanol) and 0.5 volumes of Cholesterol (CHOL; Sigma Aldrich, 10 mM in Ethanol) and vortexed for 5 s. The mixture (Red/Green BODIPY® PC-A2/DOPC/DOPG/CHOL) was diluted 1:91.4 in activity assay buffer (50 mM Tris/HCl pH 8.5, 100 mM NaCl) using a small-orifice pipette tip under constant vortexing. In the following, this preparation will be referred to as the “substrate solution”.
In order to evaluate their inhibitory potential, compounds were dissolved at 10 mM concentration in DMSO and directly spotted into assay plates (Corning, Cat. No. 3576) using acoustic liquid transfer (Labcyte Echo 525). Each compound was spotted at increasing concentrations, ranging from 2 nM to 50 μM (concentration in the final assay volume). 50 μl of PLA2G16 enzyme solution (diluted in activity buffer, supplemented with 5 mM L-Glutathione; Sigma Aldrich) was pre-incubated with compounds for 4 min., followed by addition of 50 μl of substrate solution. Fluorescence was recorded immediately after substrate addition for a total time of 10 min. using a SpectraMax M5 multimode reader (Excitation wavelength: 480 nm, emission wavelength: 530 nm). The relative increase of fluorescence over time is referred to as the enzyme activity. Half-maximal inhibitory concentrations (IC50) were derived by non-linear regression analysis using the drc package in R (R Development. Core Team, 2005).

The subject of assay [2] is picornaviruses (CVB1, HRV-A2, HRV-A23, EV-68). Briefly: Anti-picornavirus cytopathic effect (CPE) reduction assay on HeLa H1 cells. The format is cell-based. As to conditions: Enterovirus B, HeLa H1, 48 h. The protocol:
The antiviral activity of selected compounds was tested using a cytopathic effect (CPE) reduction assay on HeLa H1 cells (ATCC CRL-1958). Briefly, cells were seeded in 96-well dishes (2×10^4 cells/well) in DMEM medium (Life technologies) supplemented with 10% FBS and PenStrep solution (100 U/mL Penicillin and 100 μg/mL streptomycin) and incubated at 37° C., 5% CO2 ovemight. The next day, cells were pre-treated with serial dilutions of the compound in DMEM medium supplemented with 2% FBS and PenStrep for 2 h at 37° C., 5% CO2. Next, cells were infected with virus (CVB1, HRV-A2, HRV-A23, EV-68) at an multiplicity of infection (MOI) which results in a complete virus-induced CPE within 2 days in control wells (infected and vehicle-treated). After 48 h, supematants were aspirated and 50 μl/well of CellTiterBlue reagent (Promega) diluted 1:5 in DMEM+2% FBS, was added to the cells. Plates were returned to the incubator and allowed to develop for 1.5 h. After that, plates were equilibrated to RT and subsequently, fluorescence was recorded (Excitation wavelength: 560 nm; emission wavelength: 590 nm) using a SpectraMax M5 multimode plate reader. Viability of cells was calculated according to the formula: V=(RFUCpd−RFUVeh/(RFUM−RFUVeh), where RFUCpd refers to infected and compound-treated cells, RFUVeh to infected and vehicle-treated cells and RFUM to uninfected and vehicle treated cells. Half-maximal effective concentrations (EC50) were calculated by non-linear regression analysis using the drc package in R (R Development. Core Team, 2005). EC50 categories as presented in Table 2 were calculated by averaging the EC50 values from four picornaviruses (CVB1, HRV-A2, HRV-A23, EV68).
In general terms: Protection from cytopathic effect is a common read-out in antiviral testing.

Setting [3] is: HeLa H1 cells, 48 h, category from averaging the EC50 values from four picornaviruses (CVB1, HRV-A2, HRV-A23, EV68), read-out: EC50 values of the compounds determined in the anti-picornavirus assay.
The mark [4] stands for this setting: read-out: EC50 values of the compounds determined in the anti-picornavirus assay, HeLa H1 cells, 48 h, category from averaging the EC50 values from four picornaviruses (CVB1, HRV-A2, HRV-A23, EV68).

The term IC50 denotes the concentration needed to halve the response being measured. Usually EC50 stands for the concentration at which the effect is half-maximal. As for `CCC(C(=O)C(=O)NCC1CCCCC1)N(C=O)CC1CCN(C(=O)OC(C)(C)C)CC1` (stereo not drawn) [FP 59, tert-Butyl 4-[(N-{1-[(cyclohexylmethyl)carbamoyl]-1-oxobutan-2-yl} formamido)methyl]-piperidine-1-carboxylate], in assay [1], the IC50 is below 1000 nM. In assay [2] (setting [3]), the EC50 fell in the range of 1000 to 10000 nM. Taken in the same sequence, the figures for `CC(C)C(C(=O)C(N)=O)N(C=O)Cc1ccccc1` (stereo not drawn) [FP 198, 3-(N-Benzylformamido)-4-methyl-2-oxopentanamide] were 1000 to 10000 nM and above 10000 nM. For `CCC(C(=O)C(=O)NCC1CCCCC1)N(C=O)CC1CN(C(=O)OC(C)(C)C)C1` (stereo not drawn) [FP 61, tert-Butyl 3-[(NM{1-[(cyclohexylmethyl)carbamoyl]-1-oxobutan-2-yl}formamido)methyl]-azetidine-1-carboxylate], in that order: below 1000 nM and 1000 to 10000 nM. Taken in the same sequence, the figures for `CCC(NC(=O)CN1CCCCC1)C(=O)C(=O)NCC1CCCCC1` (stereo not drawn) [FP 213, N-(Cyclohexylmethyl)-2-oxo-3-[2-(piperidin-1-yl)acetamido]pentanamide] were below 1000 nM and 1000 to 10000 nM. In the case of `CC(OCC(C)(C)C)C(=O)C(=O)NCC1CC1` (stereo not drawn) [FP 122, N-(Cyclopropylmethyl)-3-(2,2-dimethylpropoxy)-2-oxobutanamide], the IC50 in assay [1] was 1000 to 10000 nM. The EC50 in assay [2] (setting [3]) lay within 1000 to 10000 nM. For `COc1ccccc1N(C=O)C(C)C(=O)C(=O)N[C@H](C)C(C)C` (stereo partly drawn) [FP 107, 3-[N-(2-Methoxyphenyl)formamido]-N-[(2R)-3-methylbutan-2-yl]-2-oxobutanamide], the IC50 in assay [1] is below 1000 nM. In addition, the EC50 in assay [2] (setting [3]) fell in the range of 1000 to 10000 nM. For `CC(C)N(C=O)C(C)C(=O)C(=O)NCC1CCCCC1` (stereo not drawn) [FP 48, N-(Cyclohexylmethyl)-2-oxo-3-[N-(propan-2-yl)formamido]butanamide], in that order: below 1000 nM and 1000 to 10000 nM. For the molecule `CC[C@H](C)NC(=O)C(=O)C(C)N(C=O)c1ccccc1OC` (stereo partly drawn) [FP 106, N-[(2S)-Butan-2-yl]-3-[N-(2-methoxyphenyl)formamido]-2-oxobutanamide], the IC50 in assay [1] is below 1000 nM. Also, the EC50 in assay [2] (setting [3]) fell in the range of 1000 to 10000 nM. As to `CC(OC1CCCCC1)C(=O)C(=O)NCC1CCC1` (stereo not drawn) [FP 126, N-(Cyclobutylmethyl)-3-(cyclohexyloxy)-2-oxobutanamide], the IC50 in assay [1] was below 1000 nM. Also, the EC50 in assay [2] (setting [3]) was below 1000 nM. As to `CC(C(=O)C(=O)NCC1CCCC1)N(C=O)Cc1ccccc1` (stereo not drawn) [FP 200, 3-(N-Benzylformamido)-N-(cyclopentylmethyl)-2-oxobutanamide], the IC50 in assay [1] is below 1000 nM. Besides, the EC50 in assay [2] (setting [3]) was below 1000 nM. Consider `Cc1noc(CCNC(=O)C(=O)[C@H]2CCC(=O)N2Cc2ccccc2)n1` [FP 293, 2-[(2R)-1-Benzyl-5-oxopyrrolidin-2-yl]-N-[2-(3-methyl-1,2,4-oxadiazol-5-yl)ethyl]-2-oxoacetamide], for which the IC50 in assay [1] is below 1000 nM. Moreover, in assay [2] (setting [3]), the EC50 fell in the range of 1000 to 10000 nM. For `CC(NC(=O)c1ccncc1)C(=O)C(=O)NCC1CCCCC1` (stereo not drawn) [FP 205, N-(Cyclohexylmethyl)-2-oxo-3-[(pyridin-4-yl)formamido]butanamide], the IC50 in assay [1] is below 1000 nM. Also, in assay [2] (setting [3]), the EC50 was in the range of 1000 to 10000 nM. Regarding `O=C(NCc1cccc(=O)[nH]1)C(=O)C1CCC(=O)N1Cc1ccc(Cl)cc1` (stereo not drawn) [FP 247, 2-{1-[(4-Chlorophenyl)methyl]-5-oxopyrrolidin-2-yl}-2-oxo-N-[(6-oxo-1,6-dihydropyridin-2-yl)methyl]acetamide], the IC50 in assay [1] was below 1000 nM. The EC50 in assay [2] (setting [3]) fell in the range of 1000 to 10000 nM. For `O=C(NCCC1CC1)C(=O)C1CCC(=O)N1Cc1ccccc1` (stereo not drawn) [FP 307, 2-(1-Benzyl-5-oxopyrrolidin-2-yl)-N-(2-cyclopropylethyl)-2-oxoacetamide], in that order: below 1000 nM and below 1000 nM. Regarding `CC(OCC1CCCCC1)C(=O)C(=O)NCC1CC1` (stereo not drawn) [FP 123, 3-(Cyclohexylmethoxy)-N-(cyclopropylmethyl)-2-oxobutanamide], the EC50 in assay [2] (setting [4]) was in the range of 1000 to 10000 nM. Take `CC(C(=O)C(=O)NCC1CCCCC1)N(C)C(=O)CN(C)C` (stereo not drawn) [FP 177, N-(Cyclohexylmethyl)-3-[2-(dimethylamino)-N-methylacetamido]-2-oxobutanamide]: the IC50 in assay [1] lay within 1000 to 10000 nM. Take `O=C(NCC1CC1)C(=O)[C@@H]1CCC(=O)N1Cc1ccccc1` [FP 225, 2-[(2S)-1-Benzyl-5-oxopyrrolidin-2-yl]-N-(cyclopropylmethyl)-2-oxoacetamide]: the EC50 in assay [2] (setting [4]) was above 10000 nM. With `CC(C(=O)C(=O)NCC1CCCCC1)N1CCCCC1=O` (stereo not drawn) [FP 186, N-(Cyclohexylmethyl)-2-oxo-3-(2-oxopiperidin-1-yl)butanamide], the IC50 in assay [1] fell in the range of 10000 to 50000 nM.

Consider `CC(C(=O)C(=O)NCc1ccccc1)N(C=O)C1CCCCC1` (stereo not drawn) [FP 113, N-Benzyl-3-(N-cyclohexylformamido)-2-oxobutanamide], for which the IC50 in assay [1] is below 1000 nM. For `CC(C)N(C=O)C(C)C(=O)C(=O)NC(C)(C)c1cccc(Cl)c1` (stereo not drawn) [FP 26, N-[2-(3-Chlorophenyl)propan-2-yl]-2-oxo-3-[N-(propan-2-yl)formamido]butanamide], the IC50 in assay [1] lay in the range of 1000 to 10000 nM. `COc1ccccc1N(C=O)CC(=O)C(=O)NCc1cccc(Cl)c1` [FP 19, N-[(3-Chlorophenyl)methyl]-3-[N-(2-methoxyphenyl)formamido]-2-oxopropanamide]: in assay [1], the IC50 was below 1000 nM. For `COc1ccccc1N(C=O)C(C)C(=O)C(=O)NC(C)c1cccc(Cl)c1` (stereo not drawn) [FP 84, N-[1-(3-Chlorophenyl)ethyl]-3-[N-(2-methoxyphenyl)formamido]-2-oxobutanamide], the IC50 in assay [1] was below 1000 nM.
